Values quoted from earlier work, collected in article PMC9128007 (ACS Pharmacology & Translational Science, 2022).

Test system: panel of seven proteases including selected cysteine (3), serine (3), and aspartyl (1) proteases

## CC(C)(C)[C@H](NC(=O)C(F)(F)F)C(=O)N1C[C@H]2[C@@H]([C@H]1C(=O)N[C@H](C#N)C[C@@H]1CCNC1=O)C2(C)C [Nirmatrelvir]
  activity in a panel of seven proteases: lack of activity
